Structures can show the parent of a compound that is named as a salt. Where two headings read alike, the source gives them in different places.
Tests used:
[1] = Hygroscopicity by TGA after one day at ambient temperature and 93% relative humidity; type: physicochemical; details: ambient temperature
Method: The hygroscopicity of the salts of the invention was determined by TGA after one day at ambient temperature and 93% relative humidity.

[2] = Decomposition temperature by TGA; type: physicochemical; details: for Decomposition temperature: TGA, onset of the first derivative of sample weight loss v. temperature; for decomposes at: as stated in the description of the embodiments
Method: The LOD and decomposition temperature of the salts of the invention were determined by TGA, and the melting point was determined by DSC.

[3] = pH 3.0 buffer, ambient temperature, at least 20 hours
Method: The solubility of the salts of the invention was determined in pH 6.8, pH 3.0 and pH 1.0 buffers by suspending 1-5 mg of each salt in 10 mL of corresponding aqueous solution. The samples were allowed to equilibrate at ambient temperature for at least 20 hours for pH 6.8 and 3.0 or about 5 hours for pH 1.0. The supernatant was filtered and used for the solubility determination by UV-VIS spectroscopy.

[4] = pKa values of the free base; type: physicochemical; details: two values
Method: In a second step of the present inventive method, the 4-methyl-N-[3-(4-methyl-imidazol-1-yl)-5-trifluoromethyl-phenyl]-3-(4-pyridin-3-yl-pyrimidin-2-ylamino)-benzamide free base is treated with an appropriate acid of the formula HB. […] Suitable acids include, without limitation, inorganic acids such as hydrochloric acid, phosphoric acid, sulfuric acid, and sulfonic acid and organic acids such as methane sulfonic acid, ethane sulfonic acid, benzene sulfonic acid, p-toluene sulfonic acid, citric acid, fumaric acid, gentisic acid, malonic acid, maleic acid, and tartaric acid.

[5] = Stability of solutions or suspensions (Table 15); type: physicochemical
[6] = Solid state stability: heat, humidity, xenon light (Table 15); type: physicochemical
[7] = Intrinsic Dissolution Rate (rotating disk method); type: physicochemical; details: 37° C., 200 rpm
Method: Intrinsic Dissolution Rate (IDR): Dissolution rate measurements were performed at 37° C. using the rotating disk method (VanKell Instrument). A single rotation speed of 200 rpm was used. For IDR in 0.1 N HCl, an 800 mL volume, and for IDE in water, a 200 mL volume were used. The solution was continuously pumped through a UV measuring cell and recycled to the dissolution vessel.

[8] = pH of 1% solution or suspension in water; type: physicochemical; details: 1% in water; listed as Free base form B
[9] = listed as Control - free base form B
[10] = 0.1% solutions or suspensions, 1 week at 80° C., Acetonitrile
[11] = 0.1% solutions or suspensions, 1 week at 80° C., Ethanol
[12] = 0.1% solutions or suspensions, 1 week at 80° C., Methanol
[13] = 0.1% solutions or suspensions, 1 week at 80° C., Water (pH measured: 4.74; pH measured for HCl salt: 4.22)
[14] = 0.1% solutions or suspensions, 1 week at 80° C., pH 1 (pH measured: 1.26)
[15] = 0.1% solutions or suspensions, 1 week at 80° C., pH 2 (pH measured: 2.00)
[16] = 0.1% solutions or suspensions, 1 week at 80° C., pH 3 (pH measured: 2.94)
[17] = 0.1% solutions or suspensions, 1 week at 80° C., pH 5 (pH measured: 5.01)
[18] = 0.1% solutions or suspensions, 1 week at 80° C., pH 7 (pH measured: 6.02)
[19] = 0.1% solutions or suspensions, 1 week at 80° C., pH 9 (pH measured: 8.92)
[20] = 0.1% solutions or suspensions, 1 week at 80° C., pH 11 (pH measured: 10.86)
[21] = 0.1% solutions or suspensions, PH 1, 1 week @ 50° C.
[22] = 2% solutions or suspensions, 1 day at room temperature, 0.5% CMC
[23] = 2% solutions or suspensions, 1 day at room temperature, 0.5% HPMC cellulose 4000
[24] = 2% solutions or suspensions, 1 day at room temperature, 0.8% Tween 80
[25] = 5% solutions in DMSO, 1 day at room temperature, 1:100 dilution in pH 6.8 buffer
[26] = Solid state, 1 week 80° C., 75% relative humidity, 30% in mixture 1
[27] = Solid state, 1 week 80° C., 75% relative humidity, 30% in mixture 2
[28] = Solid state, 1 week 80° C., 75% relative humidity, Bulk (HPLC)
[29] = Solid state, 1 week 80° C., tight container, 30% in mixture 1
[30] = Solid state, 1 week 80° C., tight container, 30% in mixture 2
[31] = Solid state, 1 week 80° C., tight container, Bulk (HPLC)
[32] = Xenon light (approximately 200 kLuxh), Bulk (HPLC)

## CCS(=O)(=O)O.Cc1cn(-c2cc(NC(=O)c3ccc(C)c(Nc4nccc(-c5cccnc5)n4)c3)cc(C(F)(F)F)c2)cn1 [Ethane sulfonate, ethane sulfonate salt of 4-methyl-N-[3-(4-methyl-imidazol-1-yl)-5-trifluoromethyl-phenyl]-3-(4-pyridin-3-yl-pyrimidin-2-ylamino)-benzamide]
[1]
  % moisture gain: 1.11%
[2]
  Decomposition temperature: 220 °C
  decomposes at: about 220 °C
[3]
  Solubility at pH 3.0: 2.8 μg/mL

## Cc1cn(-c2cc(NC(=O)c3ccc(C)c(Nc4nccc(-c5cccnc5)n4)c3)cc(C(F)(F)F)c2)cn1 [Monophosphate, 4-methyl-N-[3-(4-methyl-imidazol-1-yl)-5-trifluoromethyl-phenyl]-3-(4-pyridin-3-yl-pyrimidin-2-ylamino)-benzamide monophosphate salt]
[1]; monophosphate salt
  % moisture gain: 1.33%
[2]; monophosphate salt
  Decomposition temperature: 212 °C
  decomposes at: about 212 °C

## Cc1cn(-c2cc(NC(=O)c3ccc(C)c(Nc4nccc(-c5cccnc5)n4)c3)cc(C(F)(F)F)c2)cn1.O=P(O)(O)O.O=P(O)(O)O [diphosphate salt, diphosphate salt of 4-methyl-N-[3-(4-methyl-imidazol-1-yl)-5-trifluoromethyl-phenyl]-3-(4-pyridin-3-yl-pyrimidin-2-ylamino)-benzamide]
[2]
  decomposes at: about 210 °C

## Cc1cn(-c2cc(NC(=O)c3ccc(C)c(Nc4nccc(-c5cccnc5)n4)c3)cc(C(F)(F)F)c2)cn1.O=S(=O)(O)O [Sulfate (form B), sulfate salt of 4-methyl-N-[3-(4-methyl-imidazol-1-yl)-5-trifluoromethyl-phenyl]-3-(4-pyridin-3-yl-pyrimidin-2-ylamino)-benzamide]
[1]
  % moisture gain: 0.22%
[2]
  Decomposition temperature: 201 °C
  decomposes at: about 206 °C
[3]
  Solubility at pH 3.0: 6.5 μg/mL

## Cc1cn(-c2cc(NC(=O)c3ccc(C)c(Nc4nccc(-c5cccnc5)n4)c3)cc(C(F)(F)F)c2)cn1 [Benzene sulfonate, 4-methyl-N-[3-(4-methyl-imidazol-1-yl)-5-trifluoromethyl-phenyl]-3-(4-pyridin-3-yl-pyrimidin-2-ylamino)-benzamide mono benzyl sulfonate salt]
[1]
  % moisture gain: 0.11%
[2]
  Decomposition temperature: 260 °C
[2]; listed as benzene sulfonate salt
  decomposes at: about 260 °C

## Cc1cn(-c2cc(NC(=O)c3ccc(C)c(Nc4nccc(-c5cccnc5)n4)c3)cc(C(F)(F)F)c2)cn1 [Free base (form B), 4-methyl-N-[3-(4-methyl-imidazol-1-yl)-5-trifluoromethyl-phenyl]-3-(4-pyridin-3-yl-pyrimidin-2-ylamino)-benzamide]
[4]
  pKa: 5.1
[1]; [9]
  % moisture gain: 0.08%
[5]; [10]
  Appearance: A*
  Assay: 100.16
  Assay [% area]: bracketed % area: 100.00 % area
[5]; [11]
  Appearance: A*
  Assay: 99.85
  Assay [% area]: bracketed % area: 99.96 % area
[5]; [12]
  Appearance: A*
  Assay: 98.04
  Assay [% area]: bracketed % area: 98.90 % area
[5]; [13]
  Appearance: A↓
  Assay: 101.93
  Assay [% area]: bracketed % area: 100.00 % area
[5]; [14]
  Appearance: A*
  Assay: 50.22
  Assay [% area]: bracketed % area: 45.31 % area
[5]; [15]
  Appearance: B↓
  Assay: 96.00
  Assay [% area]: bracketed % area: 94.86 % area
[5]; [16]
  Appearance: A↓
  Assay: 102.19
  Assay [% area]: bracketed % area: 100.00 % area
[5]; [17]
  Appearance: A↓
  Assay: 100.80
  Assay [% area]: bracketed % area: 100.00 % area
[5]; [18]
  Appearance: A↓
  Assay: 100.14
  Assay [% area]: bracketed % area: 100.00 % area
[5]; [19]
  Appearance: A↓
  Assay: 99.19
  Assay [% area]: bracketed % area: 100.00 % area
[5]; [20]
  Appearance: A↓
  Assay: 100.50
  Assay [% area]: bracketed % area: 100.00 % area
[5]; [21]
  Appearance: A*
  Assay: 94.01
  Assay [% area]: bracketed % area: 93.44 % area
[5]; [22]
  Appearance: A↓
  Assay: 98.28
  Assay [% area]: bracketed % area: 100.00 % area
[5]; [23]
  Appearance: A↓
  Assay: 98.27
  Assay [% area]: bracketed % area: 100,00 % area
[5]; [24]
  Appearance: A↓
  Assay: 98.78
  Assay [% area]: bracketed % area: 100.00 % area
[5]; [25]
  Appearance: A↓
  Assay: 96.98
  Assay [% area]: bracketed % area: 100.00 % area
[5]; Unstressed
  Assay: 100.99
  Assay [% area]: bracketed % area: 100.00 % area
[6]; Solid state, 1 week 80° C., 75% relative humidity
  Bulk (XRPD): No change
[6]; [26]
  Assay: 99.38
  Assay [% area]: bracketed % area: 100.00 % area
[6]; [27]
  Assay: 89.37
  Assay [% area]: bracketed % area: 96.02 % area
[6]; [28]
  Assay: 99.97
  Assay [% area]: bracketed % area: 100.00 % area
[6]; Solid state, 1 week 80° C., tight container
  Bulk (XRPD): No change
[6]; [29]
  Assay: 100.11
  Assay [% area]: bracketed % area: 100.00 % area
[6]; [30]
  Assay: 94.28
  Assay [% area]: bracketed % area: 97.75 % area
[6]; [31]
  Assay: 99.77
  Assay [% area]: bracketed % area: 100.00 % area
[6]; Xenon light (approximately 200 kLuxh)
  Bulk (XRPD): No change
[6]; [32]
  Assay: 96.03
  Assay [% area]: bracketed % area: 100.00 % area
[7]; Water, listed as Free base form B
  Intrinsic dissolution rate: 0.0013 mg min^−1 cm^−2
[7]; pH 1 (0.1N HCl)
  Intrinsic dissolution rate: 0.17 mg min^−1 cm^−2
[8]
  pH of 1% solution or suspension in water: 7.99
[3]; [9]
  Solubility at pH 3.0: 2.8 μg/mL

## Cc1cn(-c2cc(NC(=O)c3ccc(C)c(Nc4nccc(-c5cccnc5)n4)c3)cc(C(F)(F)F)c2)cn1 [Methane sulfonate, 4-methyl-N-[3-(4-methyl-imidazol-1-yl)-5-trifluoromethyl-phenyl]-3-(4-pyridin-3-yl-pyrimidin-2-ylamino)-benzamide mesylate salt]
[1]; mesylate salt
  % moisture gain: 0.22%
[2]; mesylate salt
  Decomposition temperature: 260 °C
[2]; listed as methane sulfonate (mesylate) salt, mesylate salt
  decomposes at: about 260 °C
[3]; listed as Methane sulfonate salt, mesylate salt
  Solubility at pH 3.0: 5.2 μg/mL

## Cc1cn(-c2cc(NC(=O)c3ccc(C)c(Nc4nccc(-c5cccnc5)n4)c3)cc(C(F)(F)F)c2)cn1 [p-Toluene sulfonate, 4-methyl-N-[3-(4-methyl-imidazol-1-yl)-5-trifluoromethyl-phenyl]-3-(4-pyridin-3-yl-pyrimidin-2-ylamino)-benzamide p-toluene sulfonate salt]
[1]
  % moisture gain: 1.02%
[2]
  Decomposition temperature: 256 °C
  decomposes at: about 256 °C

Source: patent US8580806B2, “Salts of 4-methyl N-[3-(4-methyl-imidazol-1-yl)-5-trifluoromethyl-phenyl]-3-(4-pyridin-3-yl-pyrimidin-2-ylamino)-benzamide” (Novartis AG, priority 2005, dated 2013)
